Data on 17 molecules can be found in patent publication US20200131144A1, “AMINE OR (THIO)AMIDE CONTAINING LXR MODULATORS” (Phenex-FXR GmbH, priority 2017, published 2020).

Data set [1] can be described thus: Pharmacokinetics in mice after single oral dosing, blood and liver exposure by LC-MS. Format: in vivo, mice (C57/bl6/J). The procedure: The pharmacokinetics of the compounds was assessed in mice after single dosing and oral administrations. Blood and liver exposure was measured via LC-MS.
The study design was as follows:
Animals: C57/bl6/J (Janvier) males Diet: standard rodent chow Dose: 20 mg/kg Animal handling: animals were withdrawn from food at least 12 h before administration Design: single dose oral administration, n=3 animals per group Sacrifice: at stated time point (4, 12 or 24 h) after administration Bioanalytics: LC-MS of liver and blood samples

The target in data set [2] is T1, LXRβ ligand-binding domain (LBD) (Homo sapiens, UniProt P55055, INS174Q).
T1 construct: or LXR (amino acids 156-461); expressed in transfected cells; host or cells: HEK293
T1 sequence (P55055 with tags, fused parts or gaps INS174Q limits assumed): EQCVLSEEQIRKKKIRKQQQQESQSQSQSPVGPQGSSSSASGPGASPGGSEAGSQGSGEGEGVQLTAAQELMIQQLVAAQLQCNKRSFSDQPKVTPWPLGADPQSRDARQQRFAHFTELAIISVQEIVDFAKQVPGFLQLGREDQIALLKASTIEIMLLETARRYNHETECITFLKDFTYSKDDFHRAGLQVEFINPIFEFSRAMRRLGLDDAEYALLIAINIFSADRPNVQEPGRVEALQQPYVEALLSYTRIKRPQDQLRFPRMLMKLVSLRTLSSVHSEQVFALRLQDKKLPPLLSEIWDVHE
Description: LXR Gal4 reporter transient transfection assay, mammalian two-hybrid, LBD-M2H Gal4β. Format: cell-based. As to conditions: HEK293 cells; inverse agonist unless *. On the procedure:
(§1) The tested compounds were usually dissolved, tested and stored as 20 mM stock solutions in DMSO. Since sulfonyl acetic acid derivatives tend to decarboxylate under these conditions, these stock solutions were prepared, tested and stored as 20 mM DMSO stock solutions containing 100 mM trifluoroacetic acid (5 equivalents). Sulfonyl acetic acid derivatives are shelf stable as solid at rt for long time as reported by Griesbrecht et al. (Synlett 2010:374) or Faucher et al. (J. Med. Chem. 2004; 47:18).
(§2) LXR Gal4 Reporter Transient Transfection Assays
(§3) LXRα and LXRβ activity status was determined via detection of interaction with coactivator and corepressor proteins in mammalian two-hybrid experiments (M2H). For this, via transient transfection the full length (FL) proteins of LXRα (amino acids 1-447; NP005684; SEQ ID NO:1) or LXRβ-(amino acids 1-461; NP009052; SEQ ID NO:2) or the ligand-binding domains (LBD) of LXRα (amino acids 155-447 SEQ ID NO:3) or LXR (amino acids 156-461; SEQ ID NO:4) were expressed from pCMV-AD (Stratagene) as fusions to the transcriptional activation domain of NFkB. As cofactors, domains of either the steroid receptor coactivator 1 (SRC1; amino acids 552-887; SEQ ID NO:5) or of the corepressor NCoR (amino acids 1906-2312; NP006302; SEQ ID NO:6) were expressed as fusions to the DNA binding domain of the yeast transcription factor GAL4 (from pCMV-BD; Stratagene). Interaction was monitored via activation of a coexpressed Firefly Luciferase Reporter gene under control of a promoter containing repetitive GAL4 response elements (vector pFRLuc; Stratagene). Transfection efficiency was controlled via cotransfection of constitutively active pRL-CMV Renilla reniformis luciferase reporter (Promega). HEK293 cells were grown in minimum essential medium (MEM) with 2 mM L-glutamine and Earle's balanced salt solution supplemented with 8.3% fetal bovine serum, 0.1 mM non-essential amino acids, 1 mM sodium pyruvate, at 37° C. in 5% CO2. 3.5×10^4 cells/well were plated in 96-well cell culture plates in growth medium supplemented with 8.3% fetal bovine serum for 16-20 h to—90% confluency. For transfection, medium was taken off and LXR and cofactor expressing plasmids as well as the reporter plasmids are added in 30 μL OPTIMEM/well including polyethylene-imine (PEI) as vehicle. Typical amounts of plasmids transfected/well: pCMV-AD-LXR (5 ng), pCMV-BD-cofactor (5 ng), pFR-Luc (100 ng), pRL-CMV (0.5 ng). Compound stocks were prepared in DMSO, prediluted in MEM to a total volume of 120 μL, and added 4 h after addition of the transfection mixture (final vehicle concentration not exceeding 0.2%). Cells were incubated for additional 16 h, lysed for 10 min in 1×Passive Lysis Buffer (Promega) and Firefly and Renilla luciferase activities were measured sequentially in the same cell extract using buffers containing D-luciferine and coelenterazine, respectively. Measurements of luminescence were done in a BMG-luminometer.

Data set [3] has as its target T2, GST-LXRβ ligand-binding domain (Homo sapiens, UniProt P55055, INS174Q).
T2 construct: amino acids 156-461; NP009052; made in house; host or cells: E. coli
T2 sequence (P55055 with tags, fused parts or gaps INS174Q limits assumed): T1 sequence (P55055 with tags, fused parts or gaps INS174Q limits assumed)
Description: TR-FRETβ activity assay (NCoA3 coactivator peptide recruitment). Format: biochemical. As to conditions: 1 μM 24(S)-25-epoxycholesterol as prestimulating agonist; inverse agonist unless *. A digest of the protocol: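 Coactivator recruitment read as TR-FRET (ex 340, em 615 and 665 nm) after 1 h equilibration at 4° C, in triplicate. Mix held 76 nM GST-tagged LXRβ LBD (aa 156-461, E. coli), 400 nM biotin-NCoA3 peptide, Tb-cryptate anti-GST, streptavidin-XL665, 240 mM KCl buffer.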

The target in data set [4] is T3, LXRα ligand-binding domain (LBD) (Homo sapiens, UniProt Q13133).
T3 construct: expressed in transfected cells; host or cells: HEK293
T3 sequence (Q13133 155-447): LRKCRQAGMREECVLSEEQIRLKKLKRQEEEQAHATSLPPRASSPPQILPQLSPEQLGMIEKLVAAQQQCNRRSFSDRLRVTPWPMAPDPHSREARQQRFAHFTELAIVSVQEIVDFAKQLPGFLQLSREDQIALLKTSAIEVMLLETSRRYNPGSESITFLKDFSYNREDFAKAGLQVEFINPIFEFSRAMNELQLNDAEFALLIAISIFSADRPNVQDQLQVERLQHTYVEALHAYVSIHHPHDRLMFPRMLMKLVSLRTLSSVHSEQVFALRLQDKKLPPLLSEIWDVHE
Nature of the data set: LXR Gal4 reporter transient transfection assay, mammalian two-hybrid, LBD-M2H Gal4α. As to conditions: HEK293 cells; inverse agonist unless *. The data set is classed as cell-based. On the procedure:
as §1, §2, §3

The conditions of data set [5]: human liver microsome; cited from earlier work. (In general: Liver microsomes are a subcellular fraction often used to study metabolism.)
For data set [6] the following is noted: rat liver microsome; cited from earlier work.
Setting [7] is: male, C57/bl6/J, mouse, liver/blood, single oral dose 20 mg/kg, time point 4 h, read-out: liver/blood ratio.
Setting [8] is: single oral dose 20 mg/kg, time point 4 h.
Where [9] appears, read: single oral dose 20 mg/kg, time point 4 h, below LLOQ.
Where [10] appears, read: single oral dose 20 mg/kg, time point 12 h.

pEC50: −log10 of the molar value. Like-named read-outs stand apart in the source and are kept apart here. Some results are limits rather than exact numbers.

By pEC50 is commonly meant −log10 of the EC50, conventionally taken in molar units. A lower pEC50 goes with a high EC50.

Regarding `CC(C)(C(=O)O)c1cccc(-c2ccc(CN(Cc3ccc(C(F)(F)F)o3)Cc3c(C#N)ccc4ccccc34)cc2)c1` [27/67], the Kp at 4 h in data set [1] (setting [7]) was 2.7. For the same molecule, in data set [1] (setting [8]), the blood/plasma exposure was determined as 4.46 µM. This molecule also showed a liver exposure in data set [1] (setting [8]) of 12.1 µM. In addition, the pEC50 in data set [2], in data set [3] and in data set [4] was more than 7.00 in each case.
In the case of `Cc1cc(C)c(S(=O)(=O)N(Cc2ccc(-c3cccc(S(C)(=O)=O)c3)cc2)Cc2ccc(C(F)(F)F)o2)c(C)c1` [GSK2033, reference compound], the oral bioavailability entry in data set [1] (single dose oral administration, 20 mg/kg) is “not orally bioavailable and hepatoselective”. In data set [1] (setting [9]), the blood/plasma exposure result is given as “(14.4 ng/mL)” and the liver exposure result was “(9.6 ng/mL)”. Also, the “clearance ClInt” value in data set [5] is reported as more than 1.0 mL/min/mg prot. Moreover, the “clearance ClInt” value in data set [6] is on record as more than 1.0 mL/min/mg prot.
On to `COc1cc(-c2cccc(C(C)(C)C(=O)O)c2)ccc1CN(Cc1ccc(C(F)(F)F)o1)Cc1c(C)ccc2ccccc12` [22/11], for which the Kp at 4 h in data set [1] (setting [7]) is 4.8. Besides, the blood/plasma exposure in data set [1] (setting [8]) was 0.57 µM. In addition, the liver exposure in data set [1] (setting [8]) is 2.75 µM. In addition, the figures for the pEC50 in data set [2], in data set [3] and in data set [4] were more than 7.00, 6.00 to 7.00 and more than 7.00, respectively.
Turning to `Cc1ccc(CN(Cc2ccc(-c3cccc(C(C)(C)C(=O)O)c3)cc2)Cc2ccc(C(F)(F)F)o2)c2ccccc12` [24/1], in data set [1] (setting [7]), the Kp at 4 h was 8. Further, the blood/plasma exposure in data set [1] (setting [8]) was 2.25 µM. The molecule further showed a liver exposure in data set [1] (setting [8]) of 18 µM. In addition, the pEC50 in data set [2], in data set [3] and in data set [4] was more than 7.00 throughout.
As to `Cc1ccc2ncccc2c1CN(Cc1ccc(-c2cccc(C(C)(C)C(=O)O)c2)cc1)Cc1ccc(C(F)(F)F)o1` [24/3], the Kp at 4 h in data set [1] (setting [7]) was determined as 9.7. Also, in data set [1] (setting [8]), the blood/plasma exposure was 1.22 µM. This molecule also returned a liver exposure in data set [1] (setting [8]) of 11.8 µM. Moreover, the pEC50 is more than 7.00 in data set [2], 6.00 to 7.00 in data set [3] and more than 7.00 in data set [4].
For the molecule `Cc1cc(C)c(C(=O)N(Cc2ccc(-c3cccc(S(=O)(=O)CC(=O)O)c3)cc2)Cc2ccc(C(F)(F)F)o2)c(C)c1` [Example 4, 2-((4′-((2,4,6-Trimethyl-N-((5-(trifluoromethyl)furan-2-yl)methyl)benzamido)methyl)-1,1′-biphenyl-3-yl)sulfonyl)acetic acid], in data set [1] (setting [10]), the liver exposure was determined as 3.45 µM. Besides, the pEC50 in data set [2] was 6.00 to 7.00; in data set [3], 5.00 to 6.00; in data set [4], 6.00 to 7.00.
For the molecule `Cc1cc(C)c(C(=O)N(Cc2ccc(-c3cccc(CCC(=O)O)c3)cc2)Cc2ccc(C(F)(F)F)o2)c(C)c1` [10/2], the pEC50 in data set [2] is more than 7.00; in data set [3] it was 5.00 to 6.00; in data set [4], 6.00 to 7.00.
Turning to `Cc1cc(C)c(CN(Cc2ccc(-c3cccc(S(=O)(=O)CC(=O)O)c3)cc2)Cc2ccc(C(F)(F)F)o2)c(C)c1` [Example 1, 2-((4′-((((5-(Trifluoromethyl)furan-2-yl)methyl)(2,4,6-trimethylbenzyl)amino)methyl)-1,1′-biphenyl-3-yl)sulfonyl)acetic acid], the Kp at 4 h in data set [1] (setting [7]) stood at 51. Further, the Kp at 12 h in data set [1] (male, C57/bl6/J, mouse, liver/blood, single oral dose 20 mg/kg, time point 12 h, read-out: liver/blood ratio) is 54. The blood/plasma exposure in data set [1] (setting [8]) worked out at 0.83 µM; in data set [1] (setting [10]), 0.06 µM. Besides, the figures for the liver exposure in data set [1] (setting [8]) and in data set [1] (setting [10]) were 42 µM and 3.2 µM, respectively. For the same molecule, the figures for the pEC50 in data set [2], in data set [3] and in data set [4] were 6.00 to 7.00, 5.00 to 6.00 and 5.00 to 6.00, respectively.
With `Cc1ccc2ccccc2c1CN(Cc1ccc(-c2cccc(CC(C)(C)C(=O)O)c2)cc1)Cc1ccc(C(F)(F)F)o1` [26/2], the pEC50 was more than 7.00 in data set [2], 5.00 to 6.00 in data set [3] and 6.00 to 7.00 in data set [4].
As for `CC(C)(C(=O)O)c1cccc(-c2ccc(CN(Cc3ccc(C(F)(F)F)o3)C(=O)c3cccn4nccc34)cc2)c1` [27/70], the pEC50 in data set [2] was more than 7.00; in data set [3] it was 6.00 to 7.00; in data set [4], 6.00 to 7.00.
With `Cc1ccc2ccccc2c1CN(Cc1ccc(-c2cc(C(C)(C)C(=O)O)ccn2)cc1)Cc1ccc(C(F)(F)F)o1` [14/1], the pEC50 in data set [2] is more than 7.00; in data set [3] it was 5.00 to 6.00; in data set [4] it was 6.00 to 7.00.
Regarding `Cc1ncc2ccccc2c1CN(Cc1ccc(-c2cccc(C(C)(C)C(=O)O)c2)cc1)Cc1ccc(C(F)(F)F)o1` [24/4], the pEC50 is more than 7.00 in data set [2], 6.00 to 7.00 in data set [3] and more than 7.00 in data set [4].
In the case of `Cc1ccc2cccnc2c1CN(Cc1ccc(-c2cccc(C(C)(C)C(=O)O)c2)cc1)Cc1ccc(C(F)(F)F)o1` [24/2], the pEC50 in data set [2] is more than 7.00; in data set [3], 5.00 to 6.00; in data set [4], 6.00 to 7.00.
Regarding `Cc1nc2ccccc2c(CN(Cc2ccc(-c3cccc(C(C)(C)C(=O)O)c3)cc2)Cc2ccc(C(F)(F)F)o2)c1C` [24/5], the negative logarithm of the EC50 (pEC50) in data set [2] and in data set [4] was more than 7.00 throughout. Further, the FRETβ result in data set [3] is listed as “D*”.
`COC(=O)CS(=O)(=O)c1cc(-c2ccc(CN(Cc3ccc(C(F)(F)F)o3)Cc3c(C)cc(C)cc3C)cc2)cc(F)c1CO` [Example 13]: the pEC50 is more than 7.00 in data set [2], 6.00 to 7.00 in data set [3] and 5.00 to 6.00 in data set [4].
Turning to `CC(C)(C(=O)O)c1cccc(-c2ccc(CN(Cc3ccc(C(F)(F)F)o3)Cc3c(C(F)F)ccc4ccccc34)cc2)c1` [27/69], the figures for the pEC50 in data set [2], in data set [3] and in data set [4] were more than 7.00, 6.00 to 7.00 and more than 7.00, respectively.
Consider `COc1cc(-c2cccc(C(C)(C)C(=O)O)c2)ccc1CN(Cc1ccc(C(F)(F)F)o1)Cc1c(C)cc(C)cc1C` [22/12], for which the pEC50 was more than 7.00 in data set [2], 6.00 to 7.00 in data set [3] and 6.00 to 7.00 in data set [4].
